Key:
S. hermonthica seeds = test: Germination assay using S. hermonthica seeds; assay type: in vivo, Striga hermonthica; conditions: positive control, 10^−7 M (FIG. 2f)
Description: The levels of strigolactones released to hydroponic culture media were estimated by germination stimulating activity using S. hermonthica seeds as described previously ^32 Strigolactones were identified and quantified on LC-MS/MS by comparing the retention time and full-scan spectrum with those of authentic standards. We synthesized deuterium-labeled epi-5DS (d1-epi-5DS) and used as an internal standard for quantitative analysis using LC-MS/MS. Germination assays using S. hermonthica were performed as described previously^32 For each bioassay, de-ionized water and (+)-strigol solution were used as negative and positive controls, respectively.

[1] = tested on: tiller bud outgrowth of rice
Procedure: Rice and Arabidopsis seeds were surface-sterilized and the seedlings were first grown aseptically on agar media. Plants were then grown hydroponically in growth chambers. For both rice and Arabidopsis, strigolactones were added to the hydroponic culture medium.
We used rice normal cultivars (Oryza sativa L. cv. Shiokari and cv. Nipponbare) and tillering dwarf mutants (FIG. 6) in this study. Rice seeds were washed in 70% ethanol for 30 sec, sterilized in 2.5% sodium hypochlorite solution for 15 min, rinsed with sterile water, and then imbibed at 28° C. in the dark for 2 days. Germinated seeds were transferred into hydroponic culture media^39 solidified with 0.6% agar (pH5.7) and cultured at 25° C. under fluorescence white light (150-200 μmol m^−2 s^−1) with a 16 h light/8 h dark photoperiod for 5 days. Each seedling was then transferred to a glass vial containing a sterilized hydroponic culture solution (13 ml), fixed with a piece of sponge at the root-shoot junction to the top of the vial, and grown under the same condition for additional 7 days (total 2 weeks). The hydroponic solution was supplemented every 3 days. For large-scale cultures, the 2-weeks-old seedlings were transferred into a 4-L porcelain pot containing the same hydroponic solution and grown under the same condition. After the transfer to pots, the solution was renewed weekly.
To further investigate the relationships between the D10/D17-derived branching inhibitor and strigolactones, we examined the effect of strigolactone treatment on rice d mutants.

D10 transcript = test: qRT-PCR of D10 transcript levels in rice roots; assay type: in vivo, Oryza sativa; conditions: roots of 8-day-old seedlings, 1 μM (+)-GR24 for 24 h (FIG. 3h)
Procedure: We performed quantitative reverse transcription-PCR (qRT-PCR) to determine D10 transcript levels, according to the method described before^38. Total RNA was extracted from roots using RNeasy Maxi kit (Qiagen). qRT-PCR was carried out to determine D10 transcript levels using gene specific primers and a Taq-Man probe (Table 1 as describe above). Ubiquitin expression was used as an internal standard.

[2] = tested on: axillary bud outgrowth of Arabidopsis; test: Axillary bud outgrowth (shoot branching) of Arabidopsis in hydroponic culture; assay type: in vivo, Arabidopsis thaliana; conditions: 5 μM in the hydroponic culture media
Procedure: Plants were then grown hydroponically in growth chambers. […] We used Arabidopsis thaliana ecotype Col-0 as the wild type and max mutants (FIG. 6). Seeds were sterilized in 1% sodium hypochlorite solution for 5 min, rinsed with sterile water, and stratified for one day at 4° C. […] Plants were then transferred to a glass pot containing 400 ml hydroponic solution^41 and grown under the same environmental condition for additional 15 days. The solution was renewed every 3 days. To measure germination stimulants, sterilized and stratified seeds were placed on glass beads (30 ml) wetted with 1/10 strength MS liquid media (10 ml) in a Petri dish (9 cm diameter) and grown for 14 days under the same conditions above. The culture media were collected and subjected to S. hermonthica germination assay.

Row | Structure (SMILES) | germination of S. hermonthica seeds (S. hermonthica seeds) | tiller bud outgrowth at 1 μM ([1]; 1 μM, 2-week-old d10-1 and d17-1 seedlings) | lowest concentration at which the inhibitory effect on tiller bud outgrowth was detectable ([1]; 2-week-old d10-1 and d17-1 seedlings) [nM] | inhibition of tiller bud outgrowth ([1]; 2-week-old d10-1 and d17-1 seedlings, compound applied to the media) | effect on d3-1 mutant plants ([1]; 6-week-old d3-1, 2 μM in the culture media) | branching phenotype and plant height of d10-1 mutant ([1]; 6-week-old d10-1, 2 μM in the culture media) | sensitivity of tiller bud outgrowth of the d3-1 mutant ([1]; d3-1 mutant seedlings (defective in probable signaling component)) | morphological abnormalities in wild type seedlings after treatment ([1]; in vivo) | plant height of wild type seedlings ([1]; in vivo) | D10 transcript levels in d10-1 and wild type seedlings (D10 transcript) | sensitivity of branching of max2 mutants [2] | enhanced branching phenotype of max3 and max4 mutants ([2]; 30-day-old plants)
1 | CC1=C[C@H](O/C=C2/C(=O)O[C@@H]3C4=C(C[C@H]23)[C@@H](O)CCC4(C)C)OC1=O [(+)-strigol, (+)-Strigol] | germination induced | – | – | – | – | – | – | – | – | – | – | –
2 | CC1=C[C@H](O/C=C2/C(=O)O[C@@H]3c4ccccc4C[C@H]23)OC1=O [GR24] | – | nearly fully inhibited | 10 | inhibited tiller bud outgrowth of 2-week-old d10-1 and d17-1 seedlings in a dose-dependent manner | no visible effect | complemented | insensitive | No morphological abnormalities were evident | did not change the plant height | decreased | insensitive | rescued

Reference: patent US8633356B2, “Method for controlling root parasitic plants” (Riken, priority 2008, dated 2014)
